Assay results as given in US9682930B2, “Rheumatoid arthritis treatment” (Avexxin AS, priority 2011, dated 2017).
pIC50: −log10 of the molar value. Entries after “also recorded” stand apart in the source; their conditions may differ.

What was measured:
[1] = test system: PGE2 production in SW982 cells; experiment: TNF induced PGE2 production in SW982 cells (EIA/ELISA); format: cell-based; conditions: for Fold change 1 (PGE2) / Fold change 2 (PGE2) / Mean fold change (PGE2): relative to Ctrl
Experimental: PGE2 production was monitored by ELISA. Those cells receiving treatment underwent reincubation (prior to stimulation) with either Compound 1 (AVX001) or Compound 2 (AVX002) for 2 hours.
FIGS. 3A and 3B show the determination of IC50 values for Compound 1 and Compound 2 inhibition of TNF induced PGE2 production in SW982 cells. […] corresponds to the PGE2 level induced with TNFα in combination with ethanol after incubation for 24 hours.
(§1) The Cell Culture SW982 model cell line at a confluent or spheroid state (Wada Y, 2005) was used since gene expression and generation of proinflammatory cytokines resemble RA-derived synovial fibroblast-like cells.
(§2) For stimulation experiments 0.5 mL of a cell suspension (5-7×10^5 cells/mL) were seeded inside the inner wells of 48-well plates. The outer wells were filled with 0.5 mL PBS. For nearly confluent populations, cells were incubated for one day (37° C., 5% CO2). In order to yield post-confluent cells, plates were left in the incubator for 3 days. After this incubation time, 300 μL of the supernatant was removed and replaced by 50 μL of stimulation medium.
(§3) Inhibition was performed in a similar manner as the stimulation. After seeding, incubation and replacement of the medium by 200 μL 0.5% FBS in DMEM, 50 μL of the particular inhibitor solution was added (Table 1). After 2 hours at 37° C., 50 μL of the supernatant was removed and replaced by the three stimulants described above.
Samples and controls were slowly thawed and diluted (between 1:1 and 1:2500) in the standard diluent. The maximal dilution was 1:10 for one step. That is why several intermediate dilutions were prepared. In the beginning all values were determined from duplicates. After having minimized technical errors, samples were only analyzed as individuals. All further steps, except for some minor corrections, were performed according to the manufacturer's recommendations as can be found in the manual of the EIA kit. In order to optimize the results, the incubation time of the alkaline phosphatase substrate was prolonged by 15 minutes. During the incubation, the plates were kept in the dark. An example of the arrangements of the samples and controls is illustrated in the appendix. The read-out was carried out with a Multiscan plate reader (Ascent Labsystems) at wavelengths of 414 and 595 nm after 10 seconds shaking at 120 rpm. The corresponding software to obtain the data was the Ascent software for Multiscan, Version 2.4.1.
SW982 cells were stimulated with TNF for various lengths ranging from 12-48 hours.

[2] = test system: arachidonic acid (AA) release in SW982 cells; experiment: TNF-induced arachidonic acid (AA) release in SW982 cells; format: cell-based
Experimental: as §1, §2, §3
We evaluted inhibition in SW982 cells by analyzing arachidonic acid (AA) release in response to TNF with or without inhibitor pre-treatment. […] The inhibitory effect of Compound 2 was compared to that of ATK and SB203580 (FIG. 1b).

[3] = test system: ESE-1 mRNA expression in SW982 cells; experiment: TNF-induced ESE-1 mRNA expression in postconfluent SW982 cells; format: cell-based; conditions: 2 hours preincubation, 6 hours 10 ng/ml TNF
Experimental: The cells were starved in 0% FCS-DMEM overnight before experimental treatment consisting of 2 hours preincubation of inhibitors followed by 6 hours stimulation with 10 ng/ml TNF
As a control, the NF-kB inhibitor BAY-7082 is included.

[4] = test system: IL-8 expression in SW982 cells; experiment: Quantitative RT-PCR of IL-8 expression in TNF stimulated SW982 cells; format: cell-based; conditions: TNF 24 hrs
Experimental: (§4) The expression of COX2, MMP and IL-8, both known to be central in inflammation and/or joint destruction was evaluated by quantiative RT-PCR. SW 982 cells were seeded at a density of 0.1×10^6 cells/well in a 6-well format and then serum-starved after reaching 2-days post confluency. Cells were preincubated with or without inhibitors for 2 hrs prior to treatment in absence or presence of TNF for 24 hrs. The fold-difference in expression of target inflammatory genes relative to an endogenous control (GAPDH) was determined using ΔΔCt method (ΔΔCt=Cttarget−CtGAPDHt)treated−(Cttarget−CtGAPDH)untreated. Mean±SD of 3 separate experiments.

[5] = test system: COX2 expression in SW982 cells; experiment: Quantitative RT-PCR of COX2 expression in TNF stimulated SW982 cells; format: cell-based; conditions: TNF 24 hrs
Experimental: as §4

[6] = test system: MMP3 expression in SW982 cells; experiment: Quantitative RT-PCR of MMP expression in TNF stimulated SW982 cells; format: cell-based; conditions: 2 hrs preincubation, TNF 24 hrs
Experimental: as §4

[7] = test system: collagen-induced arthritis; experiment: Mouse model of collagen-induced arthritis (CIA), arthritis index; format: in vivo, male DBA/1 mice; conditions: CIA mice, treatment from Day 28 for 14 days, FIG. 7
Experimental: CIA was induced in male DBA/1 mice (except naive group) by immunization with 0.1 mL emulsion containing an equal volume of bovine collagen solution (2 mg/mL) and Freund's Complete Adjuvant antigen solution at the tail base. The first injection was given on Day 0 and the second injection as booster was given on Day 21. Treatment was started on Day 28 and continued for 14 days.

[8] = SW982 cells, 2 hrs preincubation, n = 3
[9] = relative to GAPDH, ΔΔCt, n = 3, mean +/- SD

Structure (SMILES): CCCCC/C=C\C/C=C\C/C=C\C/C=C\CCCC(=O)C(F)(F)F [ATK, reference compound]
- Effect on PGE2 production in response to TNF stimulation ([1]; SW982 cells): reduced PGE2 production to basal levels

Structure (SMILES): CC/C=C\C/C=C\C/C=C\C/C=C\C/C=C\CCSCC(=O)C(F)(F)F [Compound 2]
- pIC50 ([2]; TNF 10 ng/ml, inhibitor pre-treatment, read-out: IC50 for reduction of TNF-induced release of AA): ~6.00
- Effect on AA release ([2]; TNF-induced): normalizes AA-release to basal level
- % Inhibition (PGE2) ([1]; 5 uM inhibitor + TNF): 107.3%
- Mean PGE2 ([1]; 5 uM inhibitor + TNF): 87.5
- Fold change 1 (PGE2) ([1]; 5 uM inhibitor + TNF): 0.64
- Fold change 2 (PGE2) ([1]; 5 uM inhibitor + TNF): 0.30
- Mean fold change (PGE2) ([1]; 5 uM inhibitor + TNF): 0.47
- % Inhibition (PGE2) ([1]; 10 uM inhibitor + TNF): 103.7%
- Mean PGE2 ([1]; 10 uM inhibitor + TNF): 147.5
- Fold change 1 (PGE2) ([1]; 10 uM inhibitor + TNF): 1.34
- Fold change 2 (PGE2) ([1]; 10 uM inhibitor + TNF): 0.38
- Mean fold change (PGE2) ([1]; 10 uM inhibitor + TNF): 0.86
- Effect on PGE2 production in response to TNF stimulation ([1]; SW982 cells): reduced PGE2 production to basal levels
- pIC50 ([1]; SW982 cells, FIG. 3, read-out: IC50 for inhibition of TNF induced PGE2 production): ~6.37
- Regulation of TNF-induced ESE-1 expression [3]: in a dose dependent manner; also recorded: similar, if not better, regulation of ESE-1 expression than the known NF-kB inhibitor BAY-7082
- % Inhibition of induction of IL-8 message [4, 8]: 53.49%
- Average fold induction of IL-8 transcript, Compound 2/TNF [4, 9]: 39.21 +/− 10.76
- % Inhibition of induction of COX2 message [5, 8]: 42.22%
- Average fold induction of COX2 transcript, Compound 2/TNF [5, 9]: 5.40 +/− 4.32
- % Inhibition of induction of MMP3 message [6]: ~58%
- Reduction of arthritis index (AI) [7]: More Effective than ENBREL® (Etanercept) in Reducing an Arthritis Index

Structure (SMILES): C[S+]([O-])c1ccc(-c2nc(-c3ccncc3)c(-c3ccc(F)cc3)[nH]2)cc1 (centres unmarked) [SB203580, reference compound]
- Mean PGE2 ([1]; 10 uM inhibitor + TNF): 25.6
- Fold change 1 (PGE2) ([1]; 10 uM inhibitor + TNF): 0.18
- Fold change 2 (PGE2) ([1]; 10 uM inhibitor + TNF): 0.09
- Mean fold change (PGE2) ([1]; 10 uM inhibitor + TNF): 0.14
- inhibition at 10 µM ([1]; Homo sapiens, SW982, 10 uM inhibitor + TNF): 111%
- Effect on PGE2 production in response to TNF stimulation ([1]; SW982 cells): depleted PGE2 levels to below basal release

Structure (SMILES): COc1ccc2c(c1)c(CC(=O)O)c(C)n2C(=O)c1ccc(Cl)cc1 [indomethasin, reference compound]
- Regulation of TNF-induced ESE-1 expression [3]: poorer regulation of TNF induced ESE-1 expression than the control
